In patent US20100292316A1, “IMPROVED THERAPEUTIC METHODS AND COMPOSITIONS COMPRISING CHROMAN RING COMPOUNDS” (Research Development Foundation, priority 2007, published 2010):

What was measured:
FOXO1 = FOXO1 phosphorylation and nuclear localization (Western blot, cell fractionation); assay type: cell-based, human; details: LNCaP and PC-3-GFP cells
From the text: The transcription factor FOXO1 is a downstream substrate of Akt in which phosphorylation by Akt prevents its pro-apoptotic actions (Woods et al., 2002). Since previous studies of α-TEA's mechanism of action in inducing apoptosis in cancer cells show a role for Fas signaling (Shun et al., 2004) and since FOXO1 has been proposed to be a transcriptional regulator of FasL (Ciechomska et al., 2003), it was of interest to investigate the effects of α-TEA on FOXO1 phosphorylation status and cellular location. […] FOXO1 is normally localized in the nucleus (Woods et al., 2002) and phosphorylation of FOXO1 by Akt at Ser 256 promotes the relocation of FOXO1 from the nucleus to the cytosol, thereby inhibiting its transcriptional activity (Greer et al., 2005). As expected, control LNCaP and PC-3-GFP cells had high levels of FOXO1 in the cytosol reflecting the constitutively activated state of Akt in these cells (FIG. 7B).
Plasmids encoding wild type FOXO1 (Flag-tagged FOXO1) and constitutively active FOXO1 (Flag-tagged FOXO1AAA) were generous gifts from Dr. Kun-Liang Guan (Tang et al., 1999). FOXO1 and phospho-FOXO1 antibodies were purchased from Cell Signaling Technology (Beverly, Mass.).
Preparation of cytoplasmic and nuclear extracts for the foregoing experiments was carried-out using methods that are well known in the art. […]

LNCaP cells = assay: Apoptosis by DAPI staining, LNCaP; assay type: cell-based, human
Description: Cells were plated at 2×10^6 in 100 mm cell culture plates, cultured overnight and washed with serum free media before transfection. Plasmids (0.7 μg or 4.2 of μg) or empty vector (pcDNA3) were mixed with 50 μl or 300 μl serum free media and 4 μl or 24 μl PLUS reagent (Invitrogen, CA) and incubated for 15 min at room temperature. Next 2 μl or 12 μl of Lipofectamine reagent (Invitrogen, CA) in 50 μl or 300 μl serum free media were added and the mixture incubated for another 15 min before adding to the cells in 0.5 ml or 5 ml serum free media. Cells were incubated with transfection reagents for 3 h and the growth media containing 2×FBS was added to the cells. Transfected cells were cultured overnight before α-TEA treatment. Transfection efficiency was determined to be 70% using GFP expressing plasmid.
Assessment of apoptosis based on nuclear morphology using 4′, 6-diamidino-2-phenylindole dihydrochloride (DAPI; Boehringer Mannheim Corp. Indianapolis, Ind.) has been described previously (Yu et al., 2003; Israel et al., 2000). Briefly, 1.5×10^5/well LNCaP or PC-3-GFP cells were plated in 12-well tissue culture plates and cultured overnight to allow cells to attach. On the next day, cells were treated with various concentrations of α-TEA and incubated for various time periods. At the end of treatments, cells were collected, washed with PBS, stained with 25 μl of 2 μg/ml DAPI, and viewed under a fluorescent microscope (model ICM 405 with a model 487701 filter, Zeiss). Cells which contained clearly condensed chromatin or fragmented nuclei were scored as apoptotic cells. ≧500 cells were counted in each sample. Apoptotic data are presented as percentage of apoptotic cells±S.D. for three independent experiments.
FOXO1 siRNA used in the study was purchased from Santa Cruz (Santa Cruz, Calif.). […] Transfection of human prostate cancer cells with FOXO1 siRNA or negative control siRNA was performed in 100 mm cell culture dishes at a density of 2×10^6 cells/dish using Lipofectamine 2000 (Invitrogen, Carlsbad, Calif.) and 300 pmol of siRNA duplex, resulting in a final siRNA concentration of 30 nM. siRNA transfected cells were incubated for 48-72 h prior to α-TEA treatment.

SMILES: Cc1c(C)c2c(c(C)c1OCC(=O)O)CC[C@@](C)(CCC[C@H](C)CCC[C@H](C)CCCC(C)C)O2 [α-TEA]
- FOXO1 nuclear localization (FOXO1; 40 μM α-TEA for 24 h): increase in FOXO1 levels in the nucleus
- phospho-FOXO1 levels (FOXO1; 40 μM α-TEA, 3-24 h, total protein unchanged): reduced in a time-dependent manner
- decrease in percentage of apoptotic cells in cells expressing constitutively active Akt1 vs empty vector (LNCaP cells; 15 μM α-TEA): 21%
- decrease in percentage of apoptotic cells in cells expressing constitutively active Akt1 vs empty vector (LNCaP cells; 20 μM α-TEA): 24%
- decrease in percentage of apoptotic cells in cells expressing constitutively active Akt2 vs empty vector (LNCaP cells; 20 μM α-TEA): 10%
- α-TEA-induced apoptosis on overexpression of wild type or constitutively active FOXO1 (LNCaP cells; 40 μM α-TEA 15 h, P<0.009): increased
